Assay results published in patent US20150139971A1, “METHOD FOR PREPARING REGULATORY DENDRITIC CELLS” (NIPPON KAYAKU KABUSHIKI KAISHA, priority 2010, published 2015).

Key:
[1] = tested on: dendritic cells derived from C57BL/6 mouse bone marrow cells; test: Expression of costimulatory molecules CD40, CD80, CD86 by flow cytometry (MFI) on matured dendritic cells; assay type: cell-based
Procedure: (§1) The C57BL/6 mouse bone marrow cells were cultured for 7 days in 10% FCS-RPMI1640 medium containing 20 ng/mL GM-CSF (Peprotech, origin: rabbit) and 20 ng/mL IL-4 (Peprotech, origin: rabbit) so as to cause the cells to differentiate into dendritic cells. Subsequently, 20 ng/mL TNF-α (Peprotech, origin: rabbit) was added for maturation. Treatment with NK026680 was performed by adding 50 ng/mL NK026680 on days 2 and 4 of culture and adding 250 ng/mL NK026680 on day 6 of culture.
The BALB/c mouse-derived spleen cell extract was added to dendritic cells derived from bone marrow cells which were collected from the C57BL/6 mouse, thereby causing cells to present a BALB/c antigen. The effect of incorporating the BALB/c antigen was confirmed by measuring the expression of 1-Ad (antibody: BD pharmingen), which is a BALB/c major histocompatibility complex (MHC), by flow cytometry. At this time, cells were cultured in the presence or the absence of NK026680, and the cells were allowed to mature with TNF-α (Peprotech, origin: rabbit). Maturation of dendritic cells was confirmed by flow cytometric analysis of the expression of the mature dendritic cell marker. Fluorescence-labeled antibodies against CD40, CD80 and CD86 costimulatory molecules were reacted in NK026680-treated dendritic cells (NK-DC) of the present invention and untreated dendritic cells (CTR-DC). Mean fluorescence intensity (MFI) was measured by flow cytometry, so that the expression levels of CD40, CD80, and CD86 were compared.

[2] = tested on: dendritic cells derived from C57BL/6 mouse bone marrow cells; test: IL-6 and IL-12p40 in culture supernatant of dendritic cells by ELISA; assay type: cell-based
Procedure: as §1
In this Example 2, in a manner similar to that in Example 1, the dendritic cells of the present invention treated with NK026680 and untreated dendritic cells, which had been obtained by differentiation and maturation of C57BL/6 mouse bone marrow cells, were obtained. After stimulation with TNF, cells were cultured for 24 hours. The thus obtained culture supernatant was collected, and then the concentrations of immune-response-stimulating cytokines, IL-6 and IL-12p40, were measured by ELISA (BD bioscience) (n=3).

dendritic cells = dendritic cells cultured in the presence of the compound; cited from earlier work
[3] = tested on: graft-versus-host disease model; details: Non-patent Document 5; cited from earlier work
[4] = tested on: autoimmune angiitis model; details: Non-patent Document 6; cited from earlier work

COc1ccc(-c2ccnc3nc(NC(=O)N[C@@H](C)CCCC(C)(C)O)nn23)cc1 [NK026680, (S)-(+)-1-(5-hydroxy-1,5-dimethylhexyl)-3-[7-(4-methoxyphenyl)-[1,2,4]triazolo[1,5-a]pyrimidin-2-yl]urea]
CD40 (MFI) ([1]; NK026680 50 ng/mL on days 2 and 4, 250 ng/mL on day 6, BALB/c antigen, matured with TNF-α, untreated cells 244): 159 MFI | CD86 (MFI) ([1]; NK026680 50 ng/mL on days 2 and 4, 250 ng/mL on day 6, BALB/c antigen, matured with TNF-α, untreated cells 356): 217 MFI | CD80 (MFI) ([1]; NK026680 50 ng/mL on days 2 and 4, 250 ng/mL on day 6, BALB/c antigen, matured with TNF-α, untreated cells 659): 320 MFI | expression levels of CD40, CD80 and CD86 compared with untreated dendritic cells (CTR-DC) ([1]; in words): lower | IL-6 ([2]; culture supernatant 24 hours after TNF stimulation, n=3, untreated cells 1235 ± 272): 219 ± 94 pg/mL | IL-12p40 ([2]; culture supernatant 24 hours after TNF stimulation, n=3, untreated cells 1555 ± 650): 347 ± 100 pg/mL | concentrations of IL-6 and IL-12p40 in culture supernatant compared with untreated dendritic cells ([2]; in words): lower | expression level of a costimulatory molecule (dendritic cells): decreased | effects against a graft-versus-host disease model [3]: exhibited effects | effects against an autoimmune angiitis model [4]: exhibited effects
